Laboratory results: PubChem BioAssay AID1963836 (Molecular Pharmacology Branch, DTP, NCI, 2024)

Test system: 857933-349-R-J2-PDC complex spheroid viability
Assay: Anticancer human tumor 857933-349-R-J2-PDC patient-derived colon adenocarcinoma cell line growth inhibition [POLQ]
Conditions: for IC50: curve of first compound; for viability, T/C: stronger effect = lower value
How it was run: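 Patient-derived tumour cells were co-cultured with HUVEC and mesenchymal stem cells as multicellular spheroids at 37 °C. They were treated with POLQ inhibitors (novobiocin, ART-558, RP6685) alone or combined with other agents. Top concentrations were at or near clinical Cmax (otherwise 10 microM; SN-38 at 1 microM), decreasing in half-log steps.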
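Note: spheroids exposed to compounds for seven days before readout.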

## CC(=O)O[C@H]1C(=O)[C@@]2(C)[C@H]([C@H](OC(=O)c3ccccc3)[C@]3(O)C[C@H](OC(=O)[C@H](O)[C@@H](NC(=O)c4ccccc4)c4ccccc4)C(C)=C1C3(C)C)[C@]1(OC(C)=O)CO[C@@H]1C[C@@H]2O + Nc1ccc(C#CCN(C(=O)Cc2ncc(C(F)(F)F)cc2C(F)(F)F)c2ccc(F)cc2)nn1
Second compound 0.0316 µM
  IC50: < 9.49 nM
Second compound 0.1 µM
  IC50: < 9.49 nM
Second compound 0.316 µM
  IC50: 12.8 nM
Second compound 1 µM
  IC50: 11.2 nM
Second compound 3.16 µM
  IC50: 9.73 nM
Second compound 10 µM
  IC50: 11.3 nM
Second compound 0.0316 µM, first compound 0.00949 µM
  viability, T/C: 45%
Second compound 0.0316 µM, first compound 0.03 µM
  viability, T/C: 20.3%
Second compound 0.0316 µM, first compound 0.0949 µM
  viability, T/C: 13.2%
Second compound 0.0316 µM, first compound 0.3 µM
  viability, T/C: 10.6%
Second compound 0.0316 µM, first compound 0.949 µM
  viability, T/C: 12.3%
Second compound 0.0316 µM, first compound 3 µM
  viability, T/C: 15.7%
Second compound 0.1 µM, first compound 0.00949 µM
  viability, T/C: 45.8%
Second compound 0.1 µM, first compound 0.03 µM
  viability, T/C: 22.9%
Second compound 0.1 µM, first compound 0.0949 µM
  viability, T/C: 10.2%
Second compound 0.1 µM, first compound 0.3 µM
  viability, T/C: 15.6%
Second compound 0.1 µM, first compound 0.949 µM
  viability, T/C: 11.8%
Second compound 0.1 µM, first compound 3 µM
  viability, T/C: 15.2%
Second compound 0.316 µM, first compound 0.00949 µM
  viability, T/C: 58.1%
Second compound 0.316 µM, first compound 0.03 µM
  viability, T/C: 27.4%
Second compound 0.316 µM, first compound 0.0949 µM
  viability, T/C: 12.8%
Second compound 0.316 µM, first compound 0.3 µM
  viability, T/C: 14.9%
Second compound 0.316 µM, first compound 0.949 µM
  viability, T/C: 15.1%
Second compound 0.316 µM, first compound 3 µM
  viability, T/C: 17.1%
Second compound 1 µM, first compound 0.00949 µM
  viability, T/C: 54.5%
Second compound 1 µM, first compound 0.03 µM
  viability, T/C: 24.8%
Second compound 1 µM, first compound 0.0949 µM
  viability, T/C: 14.6%
Second compound 1 µM, first compound 0.3 µM
  viability, T/C: 14%
Second compound 1 µM, first compound 0.949 µM
  viability, T/C: 17.4%
Second compound 1 µM, first compound 3 µM
  viability, T/C: 14.8%
Second compound 3.16 µM, first compound 0.00949 µM
  viability, T/C: 50.6%
Second compound 3.16 µM, first compound 0.03 µM
  viability, T/C: 20.1%
Second compound 3.16 µM, first compound 0.0949 µM
  viability, T/C: 16.1%
Second compound 3.16 µM, first compound 0.3 µM
  viability, T/C: 11.7%
Second compound 3.16 µM, first compound 0.949 µM
  viability, T/C: 17.3%
Second compound 3.16 µM, first compound 3 µM
  viability, T/C: 18.6%
Second compound 10 µM, first compound 0.00949 µM
  viability, T/C: 54.2%
Second compound 10 µM, first compound 0.03 µM
  viability, T/C: 26.5%
Second compound 10 µM, first compound 0.0949 µM
  viability, T/C: 16.8%
Second compound 10 µM, first compound 0.3 µM
  viability, T/C: 14.9%
Second compound 10 µM, first compound 0.949 µM
  viability, T/C: 14.5%
Second compound 10 µM, first compound 3 µM
  viability, T/C: 20.3%

## CCc1c2c(nc3ccc(O)cc13)-c1cc3c(c(=O)n1C2)COC(=O)[C@]3(O)CC + Nc1ccc(C#CCN(C(=O)Cc2ncc(C(F)(F)F)cc2C(F)(F)F)c2ccc(F)cc2)nn1
Second compound 0.0316 µM
  IC50: 14.9 nM
Second compound 0.1 µM
  IC50: 13.6 nM
Second compound 0.316 µM
  IC50: 10.9 nM
Second compound 1 µM
  IC50: 12.7 nM
Second compound 3.16 µM
  IC50: 13.2 nM
Second compound 10 µM
  IC50: 12.7 nM
Second compound 0.0316 µM, first compound 0.00316 µM
  viability, T/C: 65.4%
Second compound 0.0316 µM, first compound 0.01 µM
  viability, T/C: 63.6%
Second compound 0.0316 µM, first compound 0.0316 µM
  viability, T/C: 27.2%
Second compound 0.0316 µM, first compound 0.1 µM
  viability, T/C: 18.6%
Second compound 0.0316 µM, first compound 0.316 µM
  viability, T/C: 10.8%
Second compound 0.0316 µM, first compound 1 µM
  viability, T/C: 2.67%
Second compound 0.1 µM, first compound 0.00316 µM
  viability, T/C: 64.9%
Second compound 0.1 µM, first compound 0.01 µM
  viability, T/C: 60.5%
Second compound 0.1 µM, first compound 0.0316 µM
  viability, T/C: 23.2%
Second compound 0.1 µM, first compound 0.1 µM
  viability, T/C: 14.3%
Second compound 0.1 µM, first compound 0.316 µM
  viability, T/C: 9.81%
Second compound 0.1 µM, first compound 1 µM
  viability, T/C: 2.89%
Second compound 0.316 µM, first compound 0.00316 µM
  viability, T/C: 68%
Second compound 0.316 µM, first compound 0.01 µM
  viability, T/C: 53.6%
Second compound 0.316 µM, first compound 0.0316 µM
  viability, T/C: 21.7%
Second compound 0.316 µM, first compound 0.1 µM
  viability, T/C: 14.7%
Second compound 0.316 µM, first compound 0.316 µM
  viability, T/C: 9.84%
Second compound 0.316 µM, first compound 1 µM
  viability, T/C: 1.82%
Second compound 1 µM, first compound 0.00316 µM
  viability, T/C: 68.1%
Second compound 1 µM, first compound 0.01 µM
  viability, T/C: 58.1%
Second compound 1 µM, first compound 0.0316 µM
  viability, T/C: 24.9%
Second compound 1 µM, first compound 0.1 µM
  viability, T/C: 15.6%
Second compound 1 µM, first compound 0.316 µM
  viability, T/C: 8.49%
Second compound 1 µM, first compound 1 µM
  viability, T/C: 2.23%
Second compound 3.16 µM, first compound 0.00316 µM
  viability, T/C: 66.2%
Second compound 3.16 µM, first compound 0.01 µM
  viability, T/C: 58.9%
Second compound 3.16 µM, first compound 0.0316 µM
  viability, T/C: 27.4%
Second compound 3.16 µM, first compound 0.1 µM
  viability, T/C: 17.6%
Second compound 3.16 µM, first compound 0.316 µM
  viability, T/C: 12.5%
Second compound 3.16 µM, first compound 1 µM
  viability, T/C: 3.21%
Second compound 10 µM, first compound 0.00316 µM
  viability, T/C: 70.2%
Second compound 10 µM, first compound 0.01 µM
  viability, T/C: 57.9%
Second compound 10 µM, first compound 0.0316 µM
  viability, T/C: 25.9%
Second compound 10 µM, first compound 0.1 µM
  viability, T/C: 20.9%
Second compound 10 µM, first compound 0.316 µM
  viability, T/C: 12.7%
Second compound 10 µM, first compound 1 µM
  viability, T/C: 5.79%
